The record followed here is ChEMBL document CHEMBL1201862, “PubChem BioAssay data set” (2004).

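Step 1: Grow cells in 96-well plates. Step 2: Expose to compound for 48 hours at 5 concentrations. Step 3: Interpolate endpoints linearly; if unreached, use highest concentration. Abbreviation: GI50, concentration required for 50% inhibition of growth.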 Activity calls are given as the source filed them. No stated cut-off is given here; in the data, active = GI50 up to about 1.1 µM and inactive = higher. Bounds are passed on as bounds.

Test systems include A498; ACHN; COLO 205; HCT-15; HOP-62; IGROV-1; K562; KM12; NCI-H460; OVCAR-3; RPMI-8226; SF-268; SF-295; SK-MEL-5; SW-620; HL-60; HT-29.
Holding throughout (assay): NCI anticancer screen, dose series, 48 h

Regarding `O=C(Nc1cccs1)c1c(O)[nH]c(=S)[nH]c1=O`, the GI50 was > 100 µM (inactive) with A498; > 100 µM (inactive) with ACHN; > 100 µM (inactive) with COLO 205; over 100 µM in the experiment with HCT-15; > 100 µM (inactive) in the experiment on HOP-62; > 100 µM (inactive) with IGROV-1. Moreover, the GI50 with K562, in the experiment with KM12, in the experiment on NCI-H460, with OVCAR-3, in the experiment on RPMI-8226 and with SF-268 was > 100 µM (inactive) throughout. The GI50 in the experiment with SF-295, with SK-MEL-5 and in the experiment with SW-620 was > 100 µM (inactive) throughout.
On to `CCCN(CCCC(NC(C)=O)C(=O)NCc1ccccc1)C(=O)NCCCl` (centres undefined), for which the GI50 was > 100 µM (inactive) in the experiment with ACHN; > 100 µM (inactive) in the experiment with COLO 205; over 100 µM in the experiment with HCT-15; > 100 µM (inactive) with HL-60; > 100 µM (inactive) with HOP-62; > 100 µM (inactive) in the experiment with HT-29. Besides, the GI50 with IGROV-1, in the experiment with K562, in the experiment on KM12, in the experiment with NCI-H460, in the experiment on OVCAR-3 and in the experiment with RPMI-8226 was > 100 µM (inactive) in each case. Further, the GI50 in the experiment with SF-268, in the experiment on SF-295 and with SW-620 was > 100 µM (inactive) each time.
Regarding `COC(=O)C1=CO[C@@H](OC2CC(CO)C(O)C(O)C2O)[C@@H]2[C@@H](C)[C@@H](OC(=O)/C=C/c3ccccc3)[C@@H](O)[C@H]12.COC(=O)C1=CO[C@@H](OC2CC(CO)C(O)C(O)C2O)[C@@H]2[C@@H](C)[C@@H](OC(=O)c3ccccc3)[C@@H](O)[C@H]12` (some centres undefined), the GI50 with A498, with ACHN, with COLO 205, with HL-60, in the experiment on HOP-62 and with HT-29 was > 100 µM (inactive) each time. For the same molecule, the GI50 with IGROV-1, in the experiment on K562, in the experiment with KM12, in the experiment on OVCAR-3, with RPMI-8226 and in the experiment on SF-268 was > 100 µM (inactive) in each case. The GI50 in the experiment with SF-295, with SK-MEL-5 and in the experiment with SW-620 was > 100 µM (inactive) in each case.
For `O=C1NC(=S)NC(=O)C1=CC1CC1`, the GI50 in the experiment with A498 is > 100 µM (inactive); with ACHN it was > 100 µM (inactive); in the experiment with COLO 205 it was > 100 µM (inactive); in the experiment on HCT-15, over 100 µM; with HL-60, > 100 µM (inactive); in the experiment with HOP-62, > 100 µM (inactive). For the same molecule, the GI50 with HT-29, in the experiment with IGROV-1, with K562, in the experiment with KM12, with NCI-H460 and in the experiment on RPMI-8226 was > 100 µM (inactive) each time. In addition, the GI50 with SF-268, with SF-295, with SK-MEL-5 and in the experiment with SW-620 was > 100 µM (inactive) each time.
As for `O=P(NCCCO)(OCc1ccccc1)N(CCCl)CCCl` (centres undefined), the GI50 is > 100 µM (inactive) in the experiment on A498; > 100 µM (inactive) in the experiment on COLO 205; over 100 µM in the experiment with HCT-15; > 100 µM (inactive) with HL-60; > 100 µM (inactive) with HT-29; > 74.5 µM (inactive) with IGROV-1. Moreover, the GI50 with K562, with KM12, with NCI-H460, with OVCAR-3, in the experiment on SF-268 and in the experiment on SF-295 was > 100 µM (inactive) each time. The GI50 in the experiment on SK-MEL-5 and in the experiment with SW-620 was > 100 µM (inactive) throughout.
For the molecule `NC(=O)N/N=C/C(/C=N/NC(N)=O)[N+](=O)[O-]`, the GI50 in the experiment with A498, in the experiment on ACHN, in the experiment on COLO 205, with HL-60, with HOP-62 and with HT-29 was > 100 µM (inactive) in each case. The GI50 in the experiment on IGROV-1, in the experiment on K562, with KM12, in the experiment on OVCAR-3, in the experiment on RPMI-8226 and in the experiment on SF-268 was > 100 µM (inactive) each time. For the same molecule, the GI50 in the experiment on SF-295 and in the experiment with SW-620 was > 100 µM (inactive) throughout.
With `Cc1ccc(C(=O)C(C)N)cc1C` (centres undefined), the GI50 in the experiment on A498, with ACHN, with COLO 205, in the experiment with HOP-62, with HT-29 and with IGROV-1 was > 100 µM (inactive) each time. For the same molecule, the GI50 in the experiment with K562, in the experiment on KM12, in the experiment with NCI-H460, with OVCAR-3, in the experiment with RPMI-8226 and in the experiment with SF-268 was > 100 µM (inactive) each time. Moreover, the GI50 with SF-295, in the experiment with SK-MEL-5 and in the experiment with SW-620 was > 100 µM (inactive) throughout.
Turning to `CCCNC1=C(C(=O)OCC)C(=O)CO1`, the GI50 in the experiment on A498 was > 100 µM (inactive); with ACHN, > 100 µM (inactive); with HCT-15, over 100 µM; in the experiment with HL-60, > 100 µM (inactive); in the experiment with HT-29, > 100 µM (inactive); in the experiment with IGROV-1 it was > 100 µM (inactive). The GI50 in the experiment with K562, with NCI-H460, in the experiment on OVCAR-3, in the experiment on RPMI-8226, in the experiment with SF-268 and in the experiment with SF-295 was > 100 µM (inactive) each time. Besides, the GI50 in the experiment on SK-MEL-5 and with SW-620 was > 100 µM (inactive) throughout.
`Cc1ccccc1/N=N/C(C(=O)c1ccccc1)C(=O)c1ccccc1`: the GI50 with A498 is 39 µM (inactive); with ACHN it was 27.4 µM (inactive); in the experiment on COLO 205 it was 33.7 µM (inactive); with HCT-15 it was 17.1 µM; in the experiment on HL-60 it was 11.9 µM (inactive); in the experiment with HOP-62, 23.8 µM (inactive). For the same molecule, the GI50 with HT-29 was 28 µM (inactive); in the experiment on IGROV-1, 44.2 µM (inactive); with K562, 22.6 µM (inactive); in the experiment with KM12 it was 29.7 µM (inactive); in the experiment on OVCAR-3 it was 24.9 µM (inactive); in the experiment with RPMI-8226, 16.1 µM (inactive). Further, the GI50 was 23.3 µM (inactive) with SF-268, 23.8 µM (inactive) with SF-295, 16.6 µM (inactive) in the experiment on SK-MEL-5 and 25.9 µM (inactive) in the experiment with SW-620.
`CCOC(=O)Oc1ccc2[nH]c3c(C)cc(N)c(C)c3c2c1`: the GI50 is > 100 µM (inactive) in the experiment with ACHN; > 100 µM (inactive) with COLO 205; over 100 µM with HCT-15; 55.5 µM (inactive) in the experiment with HL-60; > 100 µM (inactive) with HOP-62; > 100 µM (inactive) in the experiment on HT-29. The GI50 was > 100 µM (inactive) with K562; 68.4 µM (inactive) with KM12; > 100 µM (inactive) in the experiment on NCI-H460; > 100 µM (inactive) in the experiment with OVCAR-3; 72.3 µM (inactive) with RPMI-8226; > 100 µM (inactive) with SF-268. Moreover, the GI50 with SF-295, in the experiment with SK-MEL-5 and in the experiment on SW-620 was > 100 µM (inactive) throughout.
For the molecule `O=C(NC(=O)c1cn(CCN2CCNCC2)c(=O)[nH]c1=O)OCc1ccccc1`, the GI50 is > 100 µM (inactive) in the experiment with ACHN; > 100 µM (inactive) with COLO 205; over 100 µM in the experiment on HCT-15; > 100 µM (inactive) in the experiment with HL-60; > 100 µM (inactive) in the experiment on HOP-62; > 100 µM (inactive) in the experiment on HT-29. The GI50 in the experiment on IGROV-1 is > 10 µM (inactive); in the experiment with K562, > 100 µM (inactive); with KM12, > 100 µM (inactive); in the experiment on NCI-H460, > 100 µM (inactive); in the experiment on OVCAR-3, > 100 µM (inactive); in the experiment with RPMI-8226 it was > 100 µM (inactive). Besides, the GI50 in the experiment with SF-268, in the experiment with SF-295, with SK-MEL-5 and in the experiment on SW-620 was > 100 µM (inactive) in each case.
Turning to `COC(=O)C(=Cc1cc(OC)c(OC)c(OC)c1-c1cc2c(cc1C(C)=O)OCO2)C(=O)OC`, the GI50 in the experiment on ACHN is 46.8 µM (inactive); in the experiment with COLO 205, 35.3 µM (inactive); in the experiment on HCT-15, 24.2 µM; in the experiment on HL-60, 34.2 µM (inactive); in the experiment on HOP-62, 36.8 µM (inactive); with HT-29, 40.6 µM (inactive). Also, the GI50 was 50.1 µM (inactive) in the experiment with IGROV-1; 37.6 µM (inactive) in the experiment with K562; 32.2 µM (inactive) with KM12; 62.8 µM (inactive) in the experiment with NCI-H460; 26.5 µM (inactive) in the experiment on OVCAR-3; 35.5 µM (inactive) with RPMI-8226. Further, the GI50 in the experiment on SF-268 is 57.1 µM (inactive); in the experiment with SF-295, 48.5 µM (inactive); with SK-MEL-5 it was 32.7 µM (inactive); in the experiment with SW-620, 46.1 µM (inactive).
In the case of `CCOc1ccc(/N=N/c2ccc3oc(=O)c(/C(C)=N\NC(=O)CC(=O)Nc4ccc(Cl)cc4)cc3c2)cc1`, the GI50 in the experiment on ACHN is 22.4 µM (inactive); in the experiment on COLO 205, 30.5 µM (inactive); in the experiment with HCT-15, 6.25 µM; in the experiment with HOP-62, 17.6 µM (inactive); in the experiment on IGROV-1 it was 22 µM (inactive); in the experiment with K562 it was 17.3 µM (inactive). For the same molecule, the GI50 with KM12 is 19.2 µM (inactive); with OVCAR-3, 15.5 µM (inactive); in the experiment on RPMI-8226, 16.2 µM (inactive); with SF-268, 19.6 µM (inactive); in the experiment with SF-295 it was 16.5 µM (inactive); with SK-MEL-5 it was 14.3 µM (inactive). Further, the GI50 in the experiment with SW-620 is 17.8 µM (inactive).
